Assays:
Format in all cases: in vivo
[1] = tested on: Abutilon theophrasti (ABUTH); experiment: Herbicidal pre-emergence action, 1280 g/ha (Table A1); conditions: visual grading after ca. 3 weeks vs untreated controls
Description: (§1) Seeds of mono- and dicotyledonous weed plants were sown in plastic pots (double sowings with one species of mono- and one species of dicotyledonous weed plants per pot), in sandy loam, and covered with soil. The compounds according to the invention, formulated in the form of wettable powders (WP) or as emulsifiable concentrates (EC), were applied to the surface of the covering soil as an aqueous suspension or as an emulsion, with the addition of 0.5% of an additive, at an application rate of 600 litres of water per hectare (converted). Following treatment, the pots were placed in a greenhouse and kept under optimum growth conditions for the test plants. The visual grading of the damage to the test plants was carried out after ca. 3 weeks in comparison to untreated controls (herbicidal effect in percent (%): 100% effect=plants have died, 0% effect=as control plants). Tables A1 to A11 below, show the effects of selected compounds of the general formula (I) according to Table 1 on various harmful plants and an application rate corresponding to 1280 g/ha obtained by the experimental procedure mentioned above.

Lolium rigidum (LOLRI) [2] = experiment: Herbicidal pre-emergence action, 1280 g/ha (Table A5); conditions: visual grading after ca. 3 weeks vs untreated controls
Description: as §1

[3] = tested on: Matricaria inodora (MATIN); experiment: Herbicidal pre-emergence action, 1280 g/ha (Table A6); conditions: visual grading after ca. 3 weeks vs untreated controls
Description: as §1

Stellaria media (STEME) [4] = experiment: Herbicidal pre-emergence action, 1280 g/ha (Table A9); conditions: visual grading after ca. 3 weeks vs untreated controls
Description: as §1

[5] = tested on: Amaranthus retroflexus (AMARE); experiment: Herbicidal pre-emergence action, 1280 g/ha (Table A11); conditions: visual grading after ca. 3 weeks vs untreated controls
Description: as §1

[6] = tested on: Abutilon theophrasti (ABUTH); experiment: Herbicidal post-emergence action, 1280 g/ha (Table B1); conditions: visual assessment after ca. 3 weeks vs untreated controls
Description: (§2) Seeds of mono- and dicotyledonous weed plants were sown in plastic pots (double sowings with one species of mono- and one species of dicotyledonous weed plants per pot), in sandy loam, covered with soil and grown under controlled growth conditions. 2 to 3 weeks after sowing, the test plants were sprayed in the single-leaf stage. The compounds according to the invention, formulated in the form of wettable powders (WP) or as emulsifiable concentrates (EC), were sprayed onto the green plant parts as an aqueous suspension or as an emulsion, with the addition of 0.5% of an additive, at an application rate of 600 litres of water per hectare (converted). The test plants were placed in the greenhouse for ca. 3 weeks under optimum growth conditions, and then the effect of the preparations was assessed visually in comparison with untreated controls (herbicidal effect in percent (%): 100% effect=plants have died, 0% effect=as control plants). Tables B1 to B11 below, show the effects of selected compounds of the general formula (I) according to Table 1 on various harmful plants using an application rate corresponding to 1280 g/ha obtained by the experimental procedure mentioned above.

Kochia scoparia (KCHSC) [7] = experiment: Herbicidal post-emergence action, 1280 g/ha (Table B4); conditions: visual assessment after ca. 3 weeks vs untreated controls
Description: as §2

Lolium rigidum (LOLRI) [8] = experiment: Herbicidal post-emergence action, 1280 g/ha (Table B5); conditions: visual assessment after ca. 3 weeks vs untreated controls
Description: as §2

[9] = tested on: Matricaria inodora (MATIN); experiment: Herbicidal post-emergence action, 1280 g/ha (Table B6); conditions: visual assessment after ca. 3 weeks vs untreated controls
Description: as §2

Stellaria media (STEME) [10] = experiment: Herbicidal post-emergence action, 1280 g/ha (Table B9); conditions: visual assessment after ca. 3 weeks vs untreated controls
Description: as §2

Veronica persica (VERPE) [11] = experiment: Herbicidal post-emergence action, 1280 g/ha, VERPE; conditions: visual grading vs untreated controls
Description: as §2, with “plants).” for “plants). Tables B1 to B11 below, show the effects of selected compounds of the general formula (I) according to Table 1 on various harmful plants using an application rate corresponding to 1280 g/ha obtained by the experimental procedure mentioned above.”
(§3) Tables B1 to B11 below, show the effects of selected compounds of the general formula (I) according to Table 1 on various harmful plants using an application rate corresponding to 1280 g/ha obtained by the experimental procedure mentioned above.

[12] = tested on: Amaranthus retroflexus (AMARE); experiment: Herbicidal post-emergence action, 1280 g/ha, AMARE; conditions: visual grading vs untreated controls
Description: as §2, with “plants).” for “plants). Tables B1 to B11 below, show the effects of selected compounds of the general formula (I) according to Table 1 on various harmful plants using an application rate corresponding to 1280 g/ha obtained by the experimental procedure mentioned above.”
as §3

Lolium rigidum (LOLRI) [13] = experiment: Herbicidal pre-emergence action, 320 g/ha (Table C2); conditions: visual grading after ca. 3 weeks vs untreated controls
Description: as §1, with “Tables C1” for “Tables A1”, “to C6” for “to A11”, “plants using” for “plants and”, “to 320” for “to 1280”

Stellaria media (STEME) [14] = experiment: Herbicidal pre-emergence action, 320 g/ha, STEME; conditions: visual grading after ca. 3 weeks
Description: as §1, with “plants).” for “plants). Tables A1 to A11 below, show the effects of selected compounds of the general formula (I) according to Table 1 on various harmful plants and an application rate corresponding to 1280 g/ha obtained by the experimental procedure mentioned above.”
Tables C1 to C6 below, show the effects of selected compounds of the general formula (I) according to Table 1 on various harmful plants using an application rate corresponding to 320 g/ha obtained by the experimental procedure mentioned above.

[15] = tested on: Abutilon theophrasti (ABUTH); experiment: Herbicidal post-emergence action, 320 g/ha, ABUTH; conditions: visual grading after ca. 3 weeks
Description: as §2, with “plants).” for “plants). Tables B1 to B11 below, show the effects of selected compounds of the general formula (I) according to Table 1 on various harmful plants using an application rate corresponding to 1280 g/ha obtained by the experimental procedure mentioned above.”
(§4) Tables D1 to D8 below, show the effects of selected compounds of the general formula (I) according to Table 1 on various harmful plants using an application rate corresponding to 320 g/ha obtained by the experimental procedure mentioned above.

[16] = tested on: Matricaria inodora (MATIN); experiment: Herbicidal post-emergence action, 320 g/ha, MATIN; conditions: visual grading after ca. 3 weeks
Description: as §2, with “plants).” for “plants). Tables B1 to B11 below, show the effects of selected compounds of the general formula (I) according to Table 1 on various harmful plants using an application rate corresponding to 1280 g/ha obtained by the experimental procedure mentioned above.”
as §4

Stellaria media (STEME) [17] = experiment: Herbicidal post-emergence action, 320 g/ha, STEME; conditions: visual grading after ca. 3 weeks
Description: as §2, with “plants).” for “plants). Tables B1 to B11 below, show the effects of selected compounds of the general formula (I) according to Table 1 on various harmful plants using an application rate corresponding to 1280 g/ha obtained by the experimental procedure mentioned above.”
as §4

Veronica persica (VERPE) [18] = experiment: Herbicidal post-emergence action, 320 g/ha, VERPE; conditions: visual grading after ca. 3 weeks
Description: as §2, with “plants).” for “plants). Tables B1 to B11 below, show the effects of selected compounds of the general formula (I) according to Table 1 on various harmful plants using an application rate corresponding to 1280 g/ha obtained by the experimental procedure mentioned above.”
as §4

[19] = tested on: Amaranthus retroflexus (AMARE); experiment: Herbicidal post-emergence action, 320 g/ha, AMARE; conditions: visual grading after ca. 3 weeks
Description: as §2, with “plants).” for “plants). Tables B1 to B11 below, show the effects of selected compounds of the general formula (I) according to Table 1 on various harmful plants using an application rate corresponding to 1280 g/ha obtained by the experimental procedure mentioned above.”
as §4

Kochia scoparia (KCHSC) [20] = experiment: Herbicidal pre-emergence action, 1280 g/ha (Table A4); conditions: visual grading after ca. 3 weeks vs untreated controls
Description: as §1

Kochia scoparia (KCHSC) [21] = experiment: Herbicidal post-emergence action, 320 g/ha, KCHSC; conditions: visual grading after ca. 3 weeks
Description: as §2, with “plants).” for “plants). Tables B1 to B11 below, show the effects of selected compounds of the general formula (I) according to Table 1 on various harmful plants using an application rate corresponding to 1280 g/ha obtained by the experimental procedure mentioned above.”
as §4

Lolium rigidum (LOLRI) [22] = experiment: Herbicidal post-emergence action, 320 g/ha, LOLRI; conditions: visual grading after ca. 3 weeks
Description: as §2, with “plants).” for “plants). Tables B1 to B11 below, show the effects of selected compounds of the general formula (I) according to Table 1 on various harmful plants using an application rate corresponding to 1280 g/ha obtained by the experimental procedure mentioned above.”
as §4

Row | SMILES | herbicidal effect LOLRI (Lolium rigidum (LOLRI) [2]) | herbicidal effect MATIN [3] | herbicidal effect STEME (Stellaria media (STEME) [4]) | herbicidal effect ABUTH [6] | herbicidal effect KCHSC (Kochia scoparia (KCHSC) [7]) | herbicidal effect LOLRI (Lolium rigidum (LOLRI) [8]) | herbicidal effect MATIN [9] | herbicidal effect STEME (Stellaria media (STEME) [10]) | herbicidal effect VERPE (Veronica persica (VERPE) [11]) | herbicidal effect AMARE [12] | herbicidal effect ABUTH [15] | herbicidal effect MATIN [16] | herbicidal effect STEME (Stellaria media (STEME) [17]) | herbicidal effect VERPE (Veronica persica (VERPE) [18]) | herbicidal effect AMARE [19] | herbicidal effect KCHSC (Kochia scoparia (KCHSC) [21]) | herbicidal effect LOLRI (Lolium rigidum (LOLRI) [22]) | further results
1 | Cc1nn(C)c(=O)c(Oc2cc(F)ccc2C2CC2)c1O [Example I-046] | 100% | 90% | 100% | 100% | 90% | 100% | 100% | 100% | 100% | 100% | 100% | 90% | 90% | 90% | 90% | – | – | herbicidal effect ABUTH [1]: 90%; herbicidal effect AMARE [5]: 90%; herbicidal effect LOLRI (Lolium rigidum (LOLRI) [13]): 90%; herbicidal effect STEME (Stellaria media (STEME) [14]): 100%
2 | CCOC(=O)Oc1c(C)nn(C)c(=O)c1Oc1cccc(F)c1C1CC1 [Example I-058] | 90% | – | 90% | 100% | 100% | 100% | 100% | 90% | 90% | 90% | 90% | – | 90% | – | 90% | 90% | 90% | herbicidal effect KCHSC (Kochia scoparia (KCHSC) [20]): 90%
3 | CC(=O)Oc1c(C)nn(C)c(=O)c1Oc1ccccc1OC(F)F [Example I-081] | 90% | 90% | 90% | 100% | 100% | 90% | 100% | 90% | 100% | 100% | 90% | 90% | 90% | – | 90% | – | 90% | –
4 | CCOC(=O)Oc1c(C)nn(C)c(=O)c1Oc1c(F)cccc1C1CC1 [Example I-085] | 100% | – | 90% | 100% | 100% | 100% | 100% | 100% | 100% | 100% | 90% | – | 100% | 90% | 90% | – | 90% | –
5 | Cc1nn(C)c(=O)c(Oc2cc(F)c(F)cc2Br)c1O [Example I-087] | 90% | – | – | 100% | 100% | – | 100% | – | 90% | 100% | – | 90% | – | 90% | 90% | 90% | – | –

— patent US20240239755A1, “SUBSTITUTED PYRIDAZINONES, SALTS OR N-OXIDES THEREOF AND THEIR USE AS HERBICIDALLY ACTIVE SUBSTANCES” (Bayer Aktiengesellschaft, priority 2021, published 2024)
